From patent US9255096B1, “Substituted 1,2,3,4-tetrahydrobenzo[C][2,7] naphthyridines and derivatives thereof as kinase inhibitors” (Allergan, Inc., priority 2014, dated 2016) come the findings set out here.

Test [1] deals with T1, VEGFR2 (Homo sapiens (Human), UniProt P35968). Briefly: VEGFR2 Kinase Assay (enzyme). The class given is biochemical. The following applies: purified cytoplasmic domain KDR protein, 2.7 μM ATP. Here is the method:
VEGFR2 Kinase Assay: Biochemical KDR kinase assays were performed in 96 well microtiter plates that were coated overnight with 75 μg/well of poly-Glu-[…]:1) in 10 mM Phosphate Buffered Saline (PBS), pH 7.4. The coated plates were washed with 2 mls per well PBS+0.05% Tween-20 (PBS-T), blocked by incubation with PBS containing 1% BSA, then washed with 2 mls per well PBS-T prior to starting the reaction. Reactions were carried out in 100 μL reaction volumes containing 2.7 μM ATP in kinase buffer (50 mM Hepes buffer pH 7.4, 20 mM MgCl2, 0.1 mM MnCl2 and 0.2 mM Na3VO4). Test compounds were reconstituted in 100% DMSO and added to the reaction to give a final DMSO concentration of 5%. Reactions were initiated by the addition 20 ul per well of kinase buffer containing 200-300 ng purified cytoplasmic domain KDR protein (BPS Bioscience, San Diego, Calif.). Following a 15 minute incubation at 30° C., the reactions were washed 2 mls per well PBS-T. 100 μl of a monoclonal anti-phosphotyrosine antibody-peroxidase conjugate diluted 1:10,000 in PBS-T was added to the wells for 30 minutes. Following a 2 mls per well wash with PBS-Tween-20, 100 μl of 0-Phenylenediamine Dihydrochloride in phosphate-citrate buffer, containing urea hydrogen peroxide, was added to the wells for 7-10 minutes as a colorimetric substrate for the peroxidase. The reaction was terminated by the addition of 100 μl of 2.5N H2SO4 to each well and read using a microplate ELISA reader set at 492 nm. IC50 values for compound inhibition were calculated directly from graphs of optical density (arbitrary units) versus compound concentration following subtraction of blank values.
Target sequence in this assay (P35968 786-1356): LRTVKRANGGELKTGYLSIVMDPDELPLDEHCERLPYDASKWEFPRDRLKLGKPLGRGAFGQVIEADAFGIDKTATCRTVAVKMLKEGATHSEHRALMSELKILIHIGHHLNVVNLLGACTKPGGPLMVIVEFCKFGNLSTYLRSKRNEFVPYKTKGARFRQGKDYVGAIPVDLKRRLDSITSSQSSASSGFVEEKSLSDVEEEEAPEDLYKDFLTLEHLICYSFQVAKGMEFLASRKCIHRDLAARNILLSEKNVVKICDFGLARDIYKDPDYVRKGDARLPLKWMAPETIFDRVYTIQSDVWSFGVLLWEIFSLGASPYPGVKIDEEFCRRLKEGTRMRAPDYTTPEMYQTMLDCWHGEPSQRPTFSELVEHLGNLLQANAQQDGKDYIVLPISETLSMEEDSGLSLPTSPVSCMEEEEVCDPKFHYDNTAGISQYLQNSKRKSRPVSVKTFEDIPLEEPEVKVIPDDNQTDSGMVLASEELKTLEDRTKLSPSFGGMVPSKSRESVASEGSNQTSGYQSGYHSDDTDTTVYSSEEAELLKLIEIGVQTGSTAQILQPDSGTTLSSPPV

Test [2] addresses T1, VEGFR2. As to the kind of experiment: VEGFR2 Cellular Assay. The class given is cell-based.
Target sequence in this assay (P35968 20-1356, species assumed): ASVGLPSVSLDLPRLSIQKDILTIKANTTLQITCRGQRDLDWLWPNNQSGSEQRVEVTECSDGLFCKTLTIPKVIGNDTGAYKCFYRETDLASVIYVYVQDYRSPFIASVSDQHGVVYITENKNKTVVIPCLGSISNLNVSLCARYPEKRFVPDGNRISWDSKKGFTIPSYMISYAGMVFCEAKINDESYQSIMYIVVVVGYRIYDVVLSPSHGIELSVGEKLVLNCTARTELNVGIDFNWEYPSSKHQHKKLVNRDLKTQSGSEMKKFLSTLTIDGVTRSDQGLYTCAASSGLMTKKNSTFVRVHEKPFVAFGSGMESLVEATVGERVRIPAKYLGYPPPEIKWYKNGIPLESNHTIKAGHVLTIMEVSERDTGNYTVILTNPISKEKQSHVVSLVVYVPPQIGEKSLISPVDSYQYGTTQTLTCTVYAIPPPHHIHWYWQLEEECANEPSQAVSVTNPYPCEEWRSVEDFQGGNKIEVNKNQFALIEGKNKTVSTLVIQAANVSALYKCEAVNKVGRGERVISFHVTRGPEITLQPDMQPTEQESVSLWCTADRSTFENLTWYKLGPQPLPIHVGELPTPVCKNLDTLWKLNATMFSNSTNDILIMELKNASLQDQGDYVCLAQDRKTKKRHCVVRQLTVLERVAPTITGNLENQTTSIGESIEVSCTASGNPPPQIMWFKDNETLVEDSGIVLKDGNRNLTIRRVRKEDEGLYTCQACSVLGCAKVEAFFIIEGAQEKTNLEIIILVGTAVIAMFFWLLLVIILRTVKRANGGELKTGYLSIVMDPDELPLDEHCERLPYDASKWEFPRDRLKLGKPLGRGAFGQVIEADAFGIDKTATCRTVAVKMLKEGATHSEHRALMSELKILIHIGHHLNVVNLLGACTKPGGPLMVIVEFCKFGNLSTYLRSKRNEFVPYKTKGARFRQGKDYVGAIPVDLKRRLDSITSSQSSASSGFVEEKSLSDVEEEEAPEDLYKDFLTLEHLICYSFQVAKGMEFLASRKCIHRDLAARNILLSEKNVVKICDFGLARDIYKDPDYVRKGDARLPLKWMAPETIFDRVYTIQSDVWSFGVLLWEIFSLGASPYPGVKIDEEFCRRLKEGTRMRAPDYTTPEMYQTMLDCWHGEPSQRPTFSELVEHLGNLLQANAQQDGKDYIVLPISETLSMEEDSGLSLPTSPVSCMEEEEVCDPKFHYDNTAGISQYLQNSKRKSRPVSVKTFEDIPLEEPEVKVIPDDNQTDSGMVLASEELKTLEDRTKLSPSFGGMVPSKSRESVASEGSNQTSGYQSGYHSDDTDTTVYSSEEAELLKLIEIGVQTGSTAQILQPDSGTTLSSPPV
Test [3] has as its target T2, PDGFRβ (Homo sapiens (Human), UniProt P09619). Briefly: PDGFRβ Kinase Assay (enzyme). The settings on record: purified cytoplasmic domain PDGFR-b protein, 36 μM ATP. In kind it is biochemical. As to the method: Biochemical PDGFRβ kinase assays were performed in 96 well microtiter plates that were coated overnight with 75 μg of poly-Glu-Tyr (4:1) in 10 mM Phosphate Buffered Saline (PBS), pH 7.4. The coated plates were washed with 2 mls per well PBS+0.05% Tween-20 (PBS-T), blocked by incubation with PBS containing 1% BSA, then washed with 2 mls per well PBS-T prior to starting the reaction. Reactions were carried out in 100 μL reaction volumes containing 36 μM ATP in kinase buffer (50 mM Hepes buffer pH 7.4, 20 mM MgCl2, 0.1 mM MnCl2 and 0.2 mM Na3VO4). Test compounds were reconstituted in 100% DMSO and added to the reaction to give a final DMSO concentration of 5%. Reactions were initiated by the addition 20 ul per well of kinase buffer containing 200-300 ng purified cytoplasmic domain PDGFR-b protein (Millipore). Following a 60 minute incubation at 30° C., the reactions were washed 2 mls per well PBS-T. 100 μl of a monoclonal anti-phosphotyrosine antibody-peroxidase conjugate diluted 1:10,000 in PBS-T was added to the wells for 30 minutes. Following a 2 mls per well wash with PBS-Tween-20, 100 μl of 0-Phenylenediamine Dihydrochloride in phosphate-citrate buffer, containing urea hydrogen peroxide, was added to the wells for 7-10 minutes as a colorimetric substrate for the peroxidase. The reaction was terminated by the addition of 100 μl of 2.5N H2SO4 to each well and read using a microplate ELISA reader set at 492 nm. IC50 values for compound inhibition were calculated directly from graphs of optical density (arbitrary units) versus compound concentration following subtraction of blank values.
Target sequence in this assay (P09619 554-1106): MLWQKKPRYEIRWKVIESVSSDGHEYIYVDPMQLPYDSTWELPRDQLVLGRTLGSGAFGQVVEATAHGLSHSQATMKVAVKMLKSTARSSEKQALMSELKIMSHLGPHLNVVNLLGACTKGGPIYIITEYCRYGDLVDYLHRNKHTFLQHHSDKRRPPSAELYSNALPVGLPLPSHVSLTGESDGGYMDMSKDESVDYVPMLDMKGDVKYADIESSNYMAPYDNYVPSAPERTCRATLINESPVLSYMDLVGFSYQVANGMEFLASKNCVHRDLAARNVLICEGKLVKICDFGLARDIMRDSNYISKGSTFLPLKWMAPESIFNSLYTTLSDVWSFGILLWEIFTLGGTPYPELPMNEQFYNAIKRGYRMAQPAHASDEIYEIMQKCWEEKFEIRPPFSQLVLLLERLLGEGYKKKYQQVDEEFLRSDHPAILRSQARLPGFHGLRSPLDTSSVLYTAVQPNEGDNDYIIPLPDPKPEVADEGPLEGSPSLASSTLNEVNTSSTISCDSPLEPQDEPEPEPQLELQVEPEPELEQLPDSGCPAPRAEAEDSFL

Test [4] has as its target T2, PDGFRβ. As to the kind of experiment: PDGFRβ Cellular Assay. The class given is cell-based.
Target sequence in this assay (P09619 33-1106, species assumed): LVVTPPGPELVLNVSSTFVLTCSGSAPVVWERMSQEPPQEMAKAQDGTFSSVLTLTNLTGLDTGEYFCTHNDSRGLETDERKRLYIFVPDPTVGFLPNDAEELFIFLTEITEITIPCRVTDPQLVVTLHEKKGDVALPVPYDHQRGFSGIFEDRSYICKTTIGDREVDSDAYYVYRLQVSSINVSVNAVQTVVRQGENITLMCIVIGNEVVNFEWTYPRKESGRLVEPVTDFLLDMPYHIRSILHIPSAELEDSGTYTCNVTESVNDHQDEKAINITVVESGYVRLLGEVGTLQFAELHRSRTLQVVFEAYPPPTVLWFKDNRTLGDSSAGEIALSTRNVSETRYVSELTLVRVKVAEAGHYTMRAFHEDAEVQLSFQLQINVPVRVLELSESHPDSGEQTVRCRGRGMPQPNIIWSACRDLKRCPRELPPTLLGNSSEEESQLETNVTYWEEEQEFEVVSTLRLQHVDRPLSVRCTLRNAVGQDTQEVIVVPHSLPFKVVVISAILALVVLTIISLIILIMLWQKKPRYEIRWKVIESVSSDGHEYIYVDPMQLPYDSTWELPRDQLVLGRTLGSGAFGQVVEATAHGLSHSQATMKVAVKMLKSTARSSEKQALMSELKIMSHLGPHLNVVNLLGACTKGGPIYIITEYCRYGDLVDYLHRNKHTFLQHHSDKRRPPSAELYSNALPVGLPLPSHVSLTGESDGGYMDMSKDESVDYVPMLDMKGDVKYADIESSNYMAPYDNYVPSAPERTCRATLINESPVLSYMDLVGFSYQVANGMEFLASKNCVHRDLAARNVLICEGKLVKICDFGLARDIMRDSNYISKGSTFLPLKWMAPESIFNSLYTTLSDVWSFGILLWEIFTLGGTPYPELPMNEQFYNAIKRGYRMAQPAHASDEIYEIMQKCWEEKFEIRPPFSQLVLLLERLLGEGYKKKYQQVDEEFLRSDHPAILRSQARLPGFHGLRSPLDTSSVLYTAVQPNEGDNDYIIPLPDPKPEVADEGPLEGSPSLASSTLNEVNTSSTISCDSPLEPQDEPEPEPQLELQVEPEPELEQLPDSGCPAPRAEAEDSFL

For orientation: IC50 means the point on the concentration scale where inhibition reaches its midpoint.

In the case of `O=C(Nc1cccc(C(F)(F)F)c1)c1cccc(N2CCc3c(cnc4ccccc34)C2)c1` [Example 7, 3-(1,4-dihydrobenzo[c]-2,7-naphthyridin-3(2H)-yl)-N-[3-(trifluoromethyl)phenyl]benzamide], the IC50 was found to be 10 nM against VEGFR2 [1], 46 nM against VEGFR2 [2], 14 nM at PDGFRβ [3] and 103 nM against PDGFRβ [4].

As to `CCc1cccc(NC(=O)c2cccc(N3CCc4c(cnc5ccsc45)C3)c2)c1` [Example 14, 3-(8,9-dihydrothieno[3,2-c]-2,7-naphthyridin-7(6H)-yl)-N-(3-ethylphenyl)benzamide], the IC50 on VEGFR2 [1] was 5 nM; at VEGFR2 [2] it was 12 nM; at PDGFRβ [3], 7 nM.

Take `Cc1cccc(NC(=O)c2cccc(N3CCc4c(cnc5ccccc45)C3)c2)c1` [Example 3, 3-(1,4-dihydrobenzo[c]-2,7-naphthyridin-3(2H)-yl)-N-(3-methylphenyl)benzamide]: the half-inhibitory concentration (IC50) amounted to 7 nM against VEGFR2 [1], 23 nM on VEGFR2 [2] and 16 nM against PDGFRβ [3].

Regarding `COc1cc2ncc3c(c2cc1OC)CCN(c1cccc(C(=O)Nc2cccc(C(C)C)c2)c1)C3` [Example 10, 3-(8,9-dimethoxy-1,4-dihydrobenzo[c]-2,7-naphthyridin-3(2H)-yl)-N-(3-isopropylphenyl)benzamide], the IC50 on VEGFR2 [1] was found to be 7 nM; at PDGFRβ [3] it was 11 nM.

For the compound `COc1cc2ncc3c(c2cc1OC)CCN(c1cccc(C(=O)Nc2ccc(C(C)C)cc2)c1)C3` [Example 11, 3-(8,9-dimethoxy-1,4-dihydrobenzo[c]-2,7-naphthyridin-3(2H)-yl)-N-(4-isopropylphenyl)benzamide], the half-inhibitory concentration (IC50) stood at 9 nM against VEGFR2 [1], 20 nM on VEGFR2 [2] and 18 nM on PDGFRβ [3].

With `CC(C)c1ccc(NC(=O)c2cccc(N3CCc4c(cnc5ccccc45)C3)c2)cc1` [Example 6, 3-(1,4-dihydrobenzo[c]-2,7-naphthyridin-3(2H)-yl)-N-(4-isopropylphenyl)benzamide], the half-inhibitory concentration (IC50) against VEGFR2 [1] was determined as 8 nM; on VEGFR2 [2] it was 71 nM; against PDGFRβ [3], 16 nM.

On to `CCc1cccc(NC(=O)c2cccc(N3CCc4c(cnc5ccccc45)C3)c2)c1` [Example 4, 3-(1,4-dihydrobenzo[c]-2,7-naphthyridin-3(2H)-yl)-N-(3-ethylphenyl)benzamide], for which the half-maximal inhibitory concentration (IC50) worked out at 6 nM against VEGFR2 [1], 19 nM on VEGFR2 [2], 10 nM against PDGFRβ [3] and 58 nM against PDGFRβ [4].

Turning to `CC(C)c1cccc(NC(=O)c2cccc(N3CCc4c(cnc5ccccc45)C3)c2)c1` [Example 5, 3-(1,4-dihydrobenzo[c]-2,7-naphthyridin-3(2H)-yl)-N-(3-isopropylphenyl)benzamide], the half-inhibitory concentration (IC50) on VEGFR2 [1] worked out at 7 nM; against VEGFR2 [2], 30 nM; on PDGFRβ [3], 15 nM; against PDGFRβ [4], 200 nM.
